The source of these data is patent publication US20150087673A1, “METHODS FOR USING AND BIOMARKERS FOR AMPK-ACTIVATING COMPOUNDS” (RIGEL PHARMACEUTICALS, INC., priority 2013, published 2015).

One may read the EC50 as the concentration at which the effect is half-maximal. Low values mean higher potency in that assay, high ones lower potency in that assay.

This assay concerns AMPK. As to the kind of experiment: AMPK activation assay (enzyme-linked immunosorbent assay). The assay is classed as cell-based. The procedure, abridged: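 Read-out: immunodetected kinase activation after compound exposure, run with commercial kit reagents.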

Regarding `N#Cc1ccc(CN2CCC(NC(=O)c3ccc(C(=O)N4CCC(Oc5ccc(F)cc5F)CC4)cn3)CC2)cc1` [Compound 282, N-(1-(4-cyanobenzyl)piperidin-4-yl)-5-(4-(2,4-difluorophenoxy)piperidine-1-carbonyl)picolinamide], the concentration for a half-maximal effect (EC50) is < 500 nM.
The result for `N#Cc1ccc(CN2CCC(NC(=O)c3ccc(C(=O)N4CCC(Oc5cccnc5)CC4)cn3)CC2)cc1` [Compound 283, N-(1-(4-cyanobenzyl)piperidin-4-yl)-5-(4-(pyridin-3-yloxy)piperidine-1-carbonyl)picolinamide] reads < 500 nM; that for `CCS(=O)(=O)c1ccc(C(=O)C2CCN(C(=O)c3ccc(C(=O)NC4CCN(Cc5ccc(C#N)cc5)CC4)nc3)CC2)cc1` [Compound 260, N-(1-(4-cyanobenzyl)piperidin-4-yl)-5-(4-(4-(ethylsulfonyl)benzoyl)piperidine-1-carbonyl)picolinamide], < 500 nM.
`O=C(Nc1ccc(-c2ccccc2)cc1)c1ccc(C(=O)N2CCN(Cc3ccc(F)cc3)CC2)cn1` [Compound 11]: the EC50 was < 500 nM.
The result for `O=C(NC1CCN(Cc2ccc(F)cc2)CC1)c1cccc(C(=O)NC2CCN(Cc3ccc(F)cc3)CC2)n1` [Compound 87, N2,N6-bis(1-(4-fluorobenzyl)piperidin-4-yl)pyridine-2,6-dicarboxamide] reads 1000 to 5000 nM; that for `N#Cc1ccc(CN2CCC(NC(=O)c3ccc(C(=O)N4CCN(S(=O)(=O)c5ccccc5)CC4)cn3)CC2)cc1` [Compound 82, N-(1-(4-cyanobenzyl)piperidin-4-yl)-5-(4-(phenylsulfonyl)piperazine-1-carbonyl)picolinamide], 500 to 1000 nM.
With `CC(C)(C)OC(=O)NCCCc1cc(C(=O)N2CCN(Cc3ccc(F)cc3)CC2)cnc1C(=O)NC1CCN(Cc2ccc(C#N)cc2)CC1` [Compound 290, tert-butyl 3-(2-(1-(4-cyanobenzyl)piperidin-4-ylcarbamoyl)-5-(4-(4-fluorobenzyl)piperazine-1-carbonyl)pyridin-3-yl)propylcarbamate] the figure was < 500 nM; with `N#Cc1ccc(OC2CCN(C(=O)c3ccc(C(=O)NC4CCN(Cc5ccc(N6CCOCC6)cc5)CC4)cn3)CC2)cc1` [Compound 337, 6-(4-(4-cyanophenoxy)piperidine-1-carbonyl)-N-(1-(4-morpholinobenzyl)piperidin-4-yl)nicotinamide], < 500 nM.
Regarding `CN(C)C(=O)c1ccc(OC2CCN(C(=O)c3ccc(C(=O)NC4CCN(Cc5ccc(C#N)cc5)CC4)nc3)CC2)cc1` [Compound 357, N-(1-(4-cyanobenzyl)piperidin-4-yl)-5-(4-(4-(dimethylcarbamoyl)phenoxy)piperidine-1-carbonyl)picolinamide], the EC50 was < 500 nM.
The result for `N#Cc1ccc(CN2CCC(NC(=O)c3ccc(C(=O)N4CCN(S(=O)(=O)c5ccc(F)cc5)CC4)cn3)CC2)cc1` [Compound 78, N-(1-(4-cyanobenzyl)piperidin-4-yl)-5-(4-(4-fluorophenylsulfonyl)piperazine-1-carbonyl)picolinamide] reads < 500 nM; that for `CC(=O)c1ccc(OC2CCN(C(=O)c3ccc(C(=O)NC4CCN(Cc5ccc(C#N)cc5)CC4)cn3)CC2)cc1` [Compound 390, 6-(4-(4-acetylphenoxy)piperidine-1-carbonyl)-N-(1-(4-cyanobenzyl)piperidin-4-yl)nicotinamide], < 500 nM.
As to `N#Cc1ccc(OC2CCN(C(=O)c3ccc(C(=O)NC4CCN(Cc5nccs5)CC4)cn3)CC2)cc1` [Compound 356, 6-(4-(4-cyanophenoxy)piperidine-1-carbonyl)-N-(1-(thiazol-2-ylmethyl)piperidin-4-yl)nicotinamide], the concentration giving a half-maximal response (EC50) was < 500 nM.
For `O=C(Nc1ccc(Oc2ccccc2)cc1)c1ccc(C(=O)N2CCN(Cc3ccc(F)cc3)CC2)cn1` [Compound 16, 5-(4-(4-fluorobenzyl)piperazine-1-carbonyl)-N-(4-phenoxyphenyl)picolinamide], the EC50 is < 500 nM.
In the case of `N#Cc1ccc(CN2CCC(NC(=O)c3ccc(C(=O)N4CCN(Cc5ccc(F)cc5)CC4)nc3)CC2)cc1` [Compound 1], the EC50 is < 500 nM.
As to `COc1ccc(C(=O)C2CCN(C(=O)c3ccc(C(=O)Nc4ccc(Oc5ccc(F)cc5)nc4)cn3)CC2)cc1` [Compound 325, N-(6-(4-fluorophenoxy)pyridin-3-yl)-6-(4-(4-methoxybenzoyl)piperidine-1-carbonyl)nicotinamide], the EC50 was < 500 nM.
As to `N#Cc1ccc(CN2CCC(NC(=O)c3ccc(C(=O)N4CCCC(Cc5ccc(F)cc5)C4)cn3)CC2)cc1` (centres unmarked) [Compound 152, N-(1-(4-cyanobenzyl)piperidin-4-yl)-5-(3-(4-fluorobenzyl)piperidine-1-carbonyl)picolinamide], the EC50 is < 500 nM.
`N#Cc1ccc(CN2CCC(NC(=O)c3ccc(C(=O)N4CC(Oc5ccc(C#N)cc5)C4)cn3)CC2)cc1` [Compound 209, N-(1-(4-cyanobenzyl)piperidin-4-yl)-5-(3-(4-cyanophenoxy)azetidine-1-carbonyl)picolinamide]: the EC50 was < 500 nM.
The result for `CS(=O)(=O)c1ccc(OC2CCN(C(=O)c3ccc(C(=O)NC4CCN(Cc5cc(F)cc(F)c5)CC4)nc3)CC2)cc1` [Compound 203, N-(1-(3,5-difluorobenzyl)piperidin-4-yl)-5-(4-(4-(methylsulfonyl)phenoxy)piperidine-1-carbonyl)picolinamide] reads < 500 nM; that for `N#Cc1ccc(O[C@H]2CC[C@@H](NC(=O)c3ccc(C(=O)N4CCC(Oc5cccc(NC(=O)C6CC6)c5)CC4)nc3)CC2)cc1` [Compound 434, N-((cis)-4-(4-cyanophenoxy)cyclohexyl)-6-(4-(3-(cyclopropanecarboxamido)phenoxy)piperidine-1-carbonyl)nicotinamide], < 500 nM.
`CS(=O)(=O)c1ccc(C(=O)C2CCN(C(=O)c3ccc(C(=O)N[C@@H]4CCN(Cc5ccc(OC(F)(F)F)cc5)C[C@H]4F)nc3)CC2)cc1` (relative stereo) [Compound 253, N-((trans)-3-fluoro-1-(4-(trifluoromethoxy)benzyl)piperidin-4-yl)-5-(4-(4-(methylsulfonyl)benzoyl)piperidine-1-carbonyl)picolinamide] gave an EC50 of 500 to 1000 nM.
The result for `CC(=O)c1ccc(OC2CCN(C(=O)c3ccc(C(=O)NC4CCC(Oc5ccc(C#N)cc5)CC4)cn3)CC2)cc1` (centres unmarked) [Compound 402, 6-(4-(4-acetylphenoxy)piperidine-1-carbonyl)-N-(4-(4-cyanophenoxy)cyclohexyl)nicotinamide] reads < 500 nM.
Regarding `N#Cc1ccc(CN2CCC(NC(=O)c3ccc(C(=O)N4CCN(Cc5ccncc5)CC4)cn3)CC2)cc1` [Compound 103, N-(1-(4-cyanobenzyl)piperidin-4-yl)-5-(4-(pyridin-4-ylmethyl)piperazine-1-carbonyl)picolinamide], the EC50 is < 500 nM.
Take `COc1cccc(OC2CCCN(C(=O)c3ccc(C(=O)NC4CCN(Cc5ccc(C#N)cc5)CC4)nc3)C2)c1` (centres unmarked) [Compound 277, N-(1-(4-cyanobenzyl)piperidin-4-yl)-5-(3-(3-methoxyphenoxy)piperidine-1-carbonyl)picolinamide]: the EC50 was < 500 nM.
Regarding `COc1ccc(OC2CCN(C(=O)c3ccc(C(=O)NC4CCN(Cc5ccc(C#N)cc5)CC4)nc3)CC2)cc1` [Compound 143, N-(1-(4-cyanobenzyl)piperidin-4-yl)-5-(4-(4-methoxyphenoxy)piperidine-1-carbonyl)picolinamide], the EC50 was < 500 nM.
The result for `COc1ccc(C(=O)C2CCN(C(=O)c3ccc(C(=O)NC4CCN(Cc5ccc(NC(C)=O)cc5)CC4)cn3)CC2)cc1` [Compound 401, N-(1-(4-acetamidobenzyl)piperidin-4-yl)-6-(4-(4-methoxybenzoyl)piperidine-1-carbonyl)nicotinamide] reads 1000 to 5000 nM.
The result for `COc1ccc(C(=O)C2CCN(C(=O)c3ccc(C(=O)Nc4ccc(Oc5ccc(C(=O)N(C)C)cc5)nc4)cn3)CC2)cc1` [Compound 480, N-(6-(4-(dimethylcarbamoyl)phenoxy)pyridin-3-yl)-6-(4-(4-methoxybenzoyl)piperidine-1-carbonyl)nicotinamide] reads < 500 nM.
The result for `N#Cc1ccc(CC2CCN(C(=O)c3ccc(C(=O)NC4CCN(Cc5ccc(C#N)cc5)CC4)nc3)CC2)cc1` [Compound 128, N-(1-(4-cyanobenzyl)piperidin-4-yl)-5-(4-(4-cyanobenzyl)piperidine-1-carbonyl)picolinamide] reads < 500 nM; that for `COc1cc(C#N)ccc1OC1CCN(c2ccc(C(=O)NC3CCN(Cc4ccc(C#N)cc4)CC3)nc2)CC1` [Compound 286, 5-(4-(4-cyano-2-methoxyphenoxy)piperidin-1-yl)-N-(1-(4-cyanobenzyl)piperidin-4-yl)picolinamide], < 500 nM; that for `COc1ccc(C(=O)C2CCN(C(=O)c3ccc(C(=O)N[C@@H]4CCN(Cc5cc(C)on5)C[C@@H]4F)cn3)CC2)cc1` [Compound 426, N-((3S,4R)-3-fluoro-1-((5-methylisoxazol-3-yl)methyl)piperidin-4-yl)-6-(4-(4-methoxybenzoyl)piperidine-1-carbonyl)nicotinamide], < 500 nM.
Turning to `N#Cc1ccc(CN2CCC(NC(=O)c3ccc(C(=O)N4CCN(c5ccc(C#N)cc5)CC4)cn3)CC2)cc1` [Compound 340, N-(1-(4-cyanobenzyl)piperidin-4-yl)-5-(4-(4-cyanophenyl)piperazine-1-carbonyl)picolinamide], the EC50 is < 500 nM.
Regarding `O=C(NC1CCN(Cc2cccc(OC(F)(F)F)c2)CC1)c1ccc(C(=O)N2CCC(C(=O)c3ccc(N4CCCC4)cc3)CC2)nc1` [Compound 441, 6-(4-(4-(pyrrolidin-1-yl)benzoyl)piperidine-1-carbonyl)-N-(1-(3-(trifluoromethoxy)benzyl)piperidin-4-yl)nicotinamide], the EC50 is < 500 nM.
With `COc1ccc(C(=O)C2CCN(C(=O)c3ccc(C(=O)N[C@@H]4CCN(Cc5ccc(OC(F)(F)F)cc5)C[C@H]4F)cn3)CC2)cc1` (relative stereo) [Compound 350, N-((trans)-3-fluoro-1-(4-(trifluoromethoxy)benzyl)piperidin-4-yl)-6-(4-(4-methoxybenzoyl)piperidine-1-carbonyl)nicotinamide] the figure was < 500 nM.
